Measurements as given in DBAASP.
Converted amounts (≈) assume the structure as drawn.

Key:
Assay in all cases: ≥ marks a high value that may be exact or a test limit, other limits are often not marked, values filed in µg/mL are converted to µM
[1] = tested on: Enterococcus casseliflavus ATCC 700327
[2] = tested on: Enterococcus faecalis ATCC 29212
[3] = tested on: Escherichia coli ATCC 25922
[4] = tested on: Klebsiella pneumoniae ATCC 13883
[5] = tested on: Staphylococcus aureus ATCC 25923
[6] = tested on: Staphylococcus epidermidis ATCC 12228
Klebsiella pneumoniae = tested on: Klebsiella pneumoniae
[7] = tested on: Pseudomonas aeruginosa ATCC 27853
Bacillus subtilis = tested on: Bacillus subtilis
Enterococcus faecalis = tested on: Enterococcus faecalis
Escherichia coli O111:B4 = tested on: Escherichia coli O111:B4
[8] = tested on: Pseudomonas aeruginosa H103
[9] = tested on: Salmonella typhimurium C610
[10] = tested on: Staphylococcus aureus K147
[11] = tested on: Staphylococcus aureus SAP 0017
[12] = tested on: Staphylococcus epidermidis
[13] = tested on: Aspergillus oryzae NBRC 100959
[14] = tested on: Candida viswanathii NBRC 10321
[15] = tested on: Escherichia coli NBRC 3972
[16] = tested on: Micrococcus luteus NBRC 3333
[17] = tested on: Staphylococcus epidermidis NBRC 12993
Corynebacterium xerosis = tested on: Corynebacterium xerosis
Escherichia coli UB1005 = tested on: Escherichia coli UB1005
Listeria monocytogenes = tested on: Listeria monocytogenes
[18] = tested on: Pseudomonas aeruginosa K799
[19] = tested on: Salmonella enterica subsp. enterica serovar Typhimurium ATCC 14028s
[20] = tested on: Staphylococcus epidermidis C621
Streptococcus mitis = tested on: Streptococcus mitis
[21] = tested on: Streptococcus pneumoniae ATCC 49619
[22] = tested on: Streptococcus pyogenes ATCC 19615

`CC[C@H](C)[C@H](NC(=O)[C@@H](N)Cc1ccccc1)C(=O)NCC(=O)N[C@H](C(=O)N[C@@H](CC(C)C)C(=O)N[C@H](C(=O)N1CCC[C@H]1C(=O)N[C@@H](CC(C)C)C(=O)N[C@@H](C)C(=O)N[C@@H](CC(C)C)C(=O)NCC(=O)N[C@@H](C)C(=O)N[C@@H](CC(C)C)C(=O)N[C@H](C(=O)N[C@@H](CCCCN)C(=O)N[C@@H](CC(C)C)C(=O)N[C@@H](Cc1ccccc1)C(=O)N[C@@H](CCCCN)C(N)=O)[C@@H](C)O)[C@@H](C)CC)[C@@H](C)O` [FIGTLIPLALGALTKLFK] was tested, and the MIC [1] was 16 µM (≈ 30.6 µg/mL), the MIC [2] was 8 µM (≈ 15.3 µg/mL) and the MIC [3] was 16 µM (≈ 30.6 µg/mL). It also gave an MIC [4] of 4 µM (≈ 7.66 µg/mL), an MIC [5] of 4 µM (≈ 7.66 µg/mL) and an MIC [6] of 2 µM (≈ 3.83 µg/mL).

`CC[C@H](C)[C@H](NC(=O)[C@H](C)NC(=O)CNC(=O)[C@H](CC(C)C)NC(=O)[C@@H](N)Cc1ccccc1)C(=O)N[C@@H](CC(C)C)C(=O)N[C@@H](CCCCN)C(=O)N[C@H](C(=O)NCC(=O)N[C@@H](Cc1cnc[nH]1)C(=O)N[C@@H](C)C(=O)N[C@@H](CC(C)C)C(=O)N[C@@H](C)C(=O)N[C@@H](CCCCN)C(=O)N[C@H](C(=O)N[C@H](C(=O)N[C@@H](CC(C)C)C(=O)N1CCC[C@H]1C(=O)N[C@@H](CCSC)C(=O)N[C@H](C(=O)N[C@H](C(=O)N[C@@H](CC(N)=O)C(=O)N[C@@H](C)C(=O)N[C@@H](Cc1ccccc1)C(=O)N[C@@H](CCCCN)C(=O)N1CCC[C@H]1C(=O)N[C@@H](CCCCN)C(=O)N[C@@H](CCC(N)=O)C(=O)O)[C@@H](C)O)C(C)C)C(C)C)[C@@H](C)O)[C@@H](C)CC` [FLGAILKIGHALAKTVLPMVTNAFKPKQ] showed an MIC [1] of 4 µM (≈ 12 µg/mL), an MIC [2] of 8 µM (≈ 24.1 µg/mL) and an MIC [3] of 8 µM (≈ 24.1 µg/mL). It also gave an MIC [4] of 8 µM (≈ 24.1 µg/mL), an MIC (Klebsiella pneumoniae) of 16 µM (≈ 48.1 µg/mL) and an MIC [7] of 32 µM (≈ 96.2 µg/mL). The MIC [5] was 8 µM (≈ 24.1 µg/mL) and the MIC [6] was 4 µM (≈ 12 µg/mL).

For `CC[C@H](C)[C@H](NC(=O)[C@H](CC(C)C)NC(=O)[C@H](C)NC(=O)[C@@H]1CCCN1C(=O)[C@H](CC(C)C)NC(=O)CNC(=O)[C@@H](NC(=O)[C@@H](NC(=O)[C@H](CC(C)C)NC(=O)[C@@H](NC(=O)[C@@H](NC(=O)[C@H](CC(C)C)NC(=O)[C@@H](NC(=O)[C@H](C)NC(=O)CNC(=O)[C@@H](NC(=O)CNC(=O)[C@H](CCCCN)NC(=O)[C@H](CCCCN)NC(=O)[C@H](CCCCN)NC(=O)[C@H](Cc1ccccc1)NC(=O)[C@H](CC(C)C)NC(=O)[C@H](CCCCN)NC(=O)[C@H](Cc1c[nH]c2ccccc12)NC(=O)[C@@H](N)CCCCN)[C@@H](C)O)C(C)C)[C@@H](C)O)C(C)C)[C@@H](C)O)[C@@H](C)O)C(=O)N[C@@H](CO)C(=O)O` [KWKLFKKKGTGAVLTVLTTGLPALIS], the MIC (Bacillus subtilis) was 5.77 µM (≈ 16 µg/mL), the MIC (Enterococcus faecalis) was ≥ 46.2 µM and the MIC (Escherichia coli O111:B4) was 2.89 µM (≈ 8 µg/mL). It also gave an MIC [8] of 5.77 µM (≈ 16 µg/mL), an MIC [9] of 2.89 µM (≈ 8 µg/mL) and an MIC [10] of 11.5 µM (≈ 32 µg/mL). The MIC [11] was 11.5 µM (≈ 32 µg/mL) and the MIC [12] was 5.77 µM (≈ 16 µg/mL).

Work on `CC[C@H](C)[C@H](NC(=O)[C@H](CC(C)C)NC(=O)[C@H](C)NC(=O)[C@@H]1CCCN1C(=O)[C@H](CC(C)C)NC(=O)[C@H](C)NC(=O)[C@@H](NC(=O)[C@@H](NC(=O)[C@@H](NC(=O)[C@@H](NC(=O)[C@H](CCCCN)NC(=O)[C@H](CCCCN)NC(=O)[C@H](CC(C)C)NC(=O)[C@@H](NC(=O)[C@H](CCCCN)NC(=O)[C@@H](NC(=O)[C@H](CC(C)C)NC(=O)[C@H](CC(N)=O)NC(=O)[C@H](CCCCN)NC(=O)[C@@H](NC(=O)[C@H](Cc1ccccc1)NC(=O)[C@H](CO)NC(=O)[C@H](CCCCN)NC(=O)[C@H](Cc1c[nH]c2ccccc12)NC(=O)[C@@H](N)CCCCN)[C@@H](C)CC)[C@@H](C)O)C(C)C)C(C)C)C(C)C)[C@@H](C)O)[C@@H](C)O)C(=O)N[C@@H](CO)C(=O)O` [KWKSFIKNLTKVLKKVVTTALPALIS] yielded an MIC (Bacillus subtilis) of 2.73 µM (≈ 8 µg/mL), an MIC (Enterococcus faecalis) of 21.9 µM (≈ 64 µg/mL) and an MIC (Escherichia coli O111:B4) of 2.73 µM (≈ 8 µg/mL). It also gave an MIC [8] of 5.47 µM (≈ 16 µg/mL), an MIC [9] of 2.73 µM (≈ 8 µg/mL) and an MIC [10] of 5.47 µM (≈ 16 µg/mL). For the same compound, the MIC [11] was 2.73 µM (≈ 8 µg/mL) and the MIC [12] was 5.47 µM (≈ 16 µg/mL).

`CC[C@H](C)[C@H](NC(=O)[C@H](CCCCN)NC(=O)[C@@H](N)CCCN=C(N)N)C(=O)N[C@@H](CCCCN)C(=O)N[C@@H](CCCN=C(N)N)C(=O)N[C@@H](Cc1ccc(O)cc1)C(=O)N[C@@H](CC(C)C)C(=O)N[C@@H](CCCN=C(N)N)C(=O)N[C@@H](CCCN=C(N)N)C(=O)N[C@@H](CCSC)C(=O)N[C@H](C(=O)N[C@H](C(=O)N[C@@H](Cc1c[nH]c2ccccc12)C(=O)O)[C@@H](C)CC)[C@@H](C)CC` [RKIKRYLRRMIIW] was tested, and the MIC [13] was 13.6 µM (≈ 25 µg/mL), the MIC [14] was 27.3 µM (≈ 50 µg/mL) and the MIC [15] was ≥ 218 µM. The MIC [16] was 13.6 µM (≈ 25 µg/mL) and the MIC [17] was 13.6 µM (≈ 25 µg/mL).

For `CC[C@H](C)[C@H](NC(=O)[C@H](CCCN=C(N)N)NC(=O)[C@H](CS)NC(=O)[C@H](CC(C)C)NC(=O)[C@@H](N)CCCN=C(N)N)C(=O)N[C@H](C(=O)N1CCC[C@H]1C(=O)N[C@H](C(=O)N[C@H](C(=O)N[C@@H](CCCN=C(N)N)C(=O)N[C@H](C(=O)N[C@@H](CS)C(=O)N[C@@H](CCCN=C(N)N)C(=O)O)C(C)C)[C@@H](C)CC)C(C)C)C(C)C` [RLCRIVPVIRVCR], the MIC (Corynebacterium xerosis) was 1.26 µM (≈ 2 µg/mL), the MIC [2] was 20.2 µM (≈ 32 µg/mL) and the MIC (Escherichia coli UB1005) was 10.1 µM (≈ 16 µg/mL). For the same compound, the MIC (Listeria monocytogenes) was 2.53 µM (≈ 4 µg/mL), the MIC [18] was 20.2 µM (≈ 32 µg/mL) and the MIC [19] was ≥ 40.4 µM. The MIC [5] was > 40.4 µM, the MIC [20] was 10.1 µM (≈ 16 µg/mL) and the MIC (Streptococcus mitis) was 1.26 µM (≈ 2 µg/mL). For the same compound, the MIC [21] was ≥ 40.4 µM and the MIC [22] was 20.2 µM (≈ 32 µg/mL).

With `CC[C@H](C)[C@H](NC(=O)[C@H](CCCN=C(N)N)NC(=O)[C@H](CO)NC(=O)[C@H](CC(C)C)NC(=O)[C@@H](N)CCCN=C(N)N)C(=O)N[C@H](C(=O)N[C@H](C(=O)N[C@H](C(=O)N[C@@H](CCCN=C(N)N)C(=O)N[C@H](C(=O)N[C@@H](CS)C(=O)N[C@@H](CCCN=C(N)N)C(N)=O)C(C)C)[C@@H](C)CC)C(C)C)C(C)C` [RLSRIVVIRVCR] the MIC (Corynebacterium xerosis) was 0.34 µM (≈ 0.5 µg/mL), the MIC [2] was 10.9 µM (≈ 16 µg/mL) and the MIC (Escherichia coli UB1005) was 2.72 µM (≈ 4 µg/mL). For the same compound, the MIC (Listeria monocytogenes) was 0.34 µM (≈ 0.5 µg/mL), the MIC [18] was 10.9 µM (≈ 16 µg/mL) and the MIC [19] was ≥ 43.5 µM. For the same compound, the MIC [5] was 10.9 µM (≈ 16 µg/mL), the MIC [20] was 1.36 µM (≈ 2 µg/mL) and the MIC (Streptococcus mitis) was 0.34 µM (≈ 0.5 µg/mL). For the same compound, the MIC [21] was 5.44 µM (≈ 7.99 µg/mL) and the MIC [22] was 5.44 µM (≈ 7.99 µg/mL).
